From PMC10112521, “High-throughput AR dimerization assay identifies androgen disrupting chemicals and metabolites” (Frontiers in Toxicology, 2023)
Like-named read-outs stand apart in the source and are kept apart here.

Tests used:
AR2 cells (HepG2-AR2) = assay: Alamar Blue (resazurin) post hoc cell viability / cytotoxicity assay in AR2 cells; conditions: spid Viability, sheet antagonist_fits; for hill_tp (Hill model top): 0 where win_model is Constant
Description: For antagonist mode and cytotoxicity data, well-level normalized response (resp) was calculated as: resp=100 * RLU−bval/pval−bval where pval is the median RLU value of the MEC positive control wells (minimum four wells).

AR = test system: AR; design: method as in Kleinstreuer et al., 2017; conditions: 2017, cited from earlier work; for Agonist reference: AR agonist reference class ref Kleinstreuer et al.; for Antagonist reference: AR antagonist reference class ref Kleinstreuer et al.
human AR [1] = target: T1, human AR (Homo sapiens, UniProt P10275); assay: AR2 assay, antagonist mode: disruption of R1881 (10 nM)-induced AR homodimerization in HepG2-AR2 cells; format: cell-based; conditions: spid AR_antagonist, sheet antagonist_fits; for hill_gw (Hill model slope) / hill_tp (Hill model top): 0 where win_model is Constant
T1 sequence (P10275 1-920) 1: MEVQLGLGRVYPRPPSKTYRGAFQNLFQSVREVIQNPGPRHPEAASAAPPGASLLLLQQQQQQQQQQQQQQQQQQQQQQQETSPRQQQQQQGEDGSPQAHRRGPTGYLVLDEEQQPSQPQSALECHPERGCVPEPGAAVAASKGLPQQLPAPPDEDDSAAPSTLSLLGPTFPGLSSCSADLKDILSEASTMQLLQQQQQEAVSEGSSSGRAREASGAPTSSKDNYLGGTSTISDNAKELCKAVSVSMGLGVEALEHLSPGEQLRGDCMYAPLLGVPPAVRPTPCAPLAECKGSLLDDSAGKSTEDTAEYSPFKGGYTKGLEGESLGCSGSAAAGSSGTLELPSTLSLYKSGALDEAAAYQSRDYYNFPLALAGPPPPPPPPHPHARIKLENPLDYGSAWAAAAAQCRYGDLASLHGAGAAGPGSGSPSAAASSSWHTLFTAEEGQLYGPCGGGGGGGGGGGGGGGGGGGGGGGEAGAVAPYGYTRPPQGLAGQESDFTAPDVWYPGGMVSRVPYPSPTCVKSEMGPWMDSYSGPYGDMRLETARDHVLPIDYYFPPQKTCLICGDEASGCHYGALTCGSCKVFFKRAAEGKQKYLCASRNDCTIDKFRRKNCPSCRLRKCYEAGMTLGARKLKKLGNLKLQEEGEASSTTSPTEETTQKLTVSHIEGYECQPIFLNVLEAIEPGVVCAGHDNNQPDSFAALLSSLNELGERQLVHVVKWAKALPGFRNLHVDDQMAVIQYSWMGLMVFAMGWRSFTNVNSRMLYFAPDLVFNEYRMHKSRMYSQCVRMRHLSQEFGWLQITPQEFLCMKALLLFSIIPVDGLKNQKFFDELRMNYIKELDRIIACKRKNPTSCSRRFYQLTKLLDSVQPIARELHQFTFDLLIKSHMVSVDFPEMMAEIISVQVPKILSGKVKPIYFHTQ
T1 sequence (P10275 1-920) 2: T1 sequence (P10275 1-920) 1

human AR [2] = target: T1, human AR; assay: AR2 assay, agonist mode: ligand-dependent AR homodimerization (NanoBiT luciferase complementation) in stable HepG2-AR2 cells; format: cell-based; conditions: sheet agonist_fits; for hill_tp: Hill model top (efficacy), 0 given where win_model is Constant; for max_med: maximum median response; for win_model: winning concentration-response model (Constant, Hill, Gain-Loss);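 on hill tp: Log2 fold change of luminescence over DMSO vehicle wells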;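 on max med: Log2 fold change of luminescence over DMSO vehicle wells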

| Compound | max_med (maximum median response) (AR2 cells (HepG2-AR2)) | hill_tp (Hill model top) (AR2 cells (HepG2-AR2)) | Agonist reference (AR) | Agonist reference (AR; Supplementary Table S1) | Antagonist reference (AR) | Antagonist reference (AR; Supplementary Table S1) | max_med (maximum median response) (human AR [1]) | win_model (winning concentration-response model) (human AR [1]) | hill_gw (Hill model slope) (human AR [1]) | hill_tp (Hill model top) (human AR [1]) | hill_tp (human AR [2]) | max_med (human AR [2]) | win_model (human AR [2]) |
| --- | --- | --- | --- | --- | --- | --- | --- | --- | --- | --- | --- | --- | --- |
| C#C[C@]1(O)CC[C@H]2[C@@H]3CCC4=CC(=O)CC[C@@H]4[C@H]3CC[C@@]21CC [Levonorgestrel] | 19.7477 | 15.1748 | Strong | Strong |  |  |  |  |  |  |  |  |  |
| CON(C)C(=O)Nc1ccc(Cl)c(Cl)c1 [Linuron] | 8.62 | 20.739 |  |  | Moderate | Moderate |  |  |  |  |  |  |  |
| CCOC(=O)CC(SP(=S)(OC)OC)C(=O)OCC (stereo not shown) [Malathion] | 9.605 | 0 |  |  |  |  | 33.4262 | Hill | 0.997 | 41.649 | 0 | 0.05987 | Constant |
| CNC(=O)ON=C(C)SC [Methomyl] | 19.3855 | 17.5917 |  |  | Inactive |  |  |  |  |  |  |  |  |
| COc1ccc(C(c2ccc(OC)cc2)C(Cl)(Cl)Cl)cc1 [Methoxychlor] | 4.672 | 0 |  |  | Weak | Weak |  |  |  |  |  |  |  |
| CC1(C)NC(=O)N(c2ccc([N+](=O)[O-])c(C(F)(F)F)c2)C1=O [Nilutamide] | 8.678 | 5.9263 |  | Inactive |  | Moderate |  |  |  |  |  |  |  |
| C#C[C@]1(O)CC[C@H]2[C@@H]3CCC4=CC(=O)CC[C@@H]4[C@H]3CC[C@@]21C [Norethindrone] | 2.971 | 0 | Strong | Strong |  |  |  |  |  |  |  |  |  |
| CNC(=O)O/N=C(\SC)C(=O)N(C)C [Oxamyl] | 14.6316 | 13.892 |  |  |  |  | 4.35 | Constant | 0 | 0 | 0 | 0.09886 | Constant |
| CCCN(CCOc1c(Cl)cc(Cl)cc1Cl)C(=O)n1ccnc1 [Prochloraz] | 76.2192 | 81.7308 | Inactive |  | Moderate | Moderate |  |  |  |  |  |  |  |
| CC(=O)S[C@@H]1CC2=CC(=O)CC[C@]2(C)[C@H]2CC[C@@]3(C)[C@@H](CC[C@@]34CCC(=O)O4)[C@H]12 [Spironolactone] | 26.4305 |  |  |  | Strong | Strong |  |  |  |  |  |  |  |
| CC/C(=C(\c1ccccc1)c1ccc(OCCN(C)C)cc1)c1ccccc1 [Tamoxifen] | 41.7162 | 97.2082 | Inactive |  |  |  |  |  |  |  |  |  |  |
